Assays:
Type in all cases: cell-based, human
IVS2-705U EGFP cells [1] = experiment: EGFP fluorescence screen by fluorescence microscopy, IVS2-705U EGFP HeLa cells; design: key: Compounds causing moderate to high levels of fluorescence with no autofluorescence of the compound itself are indicated by a (+) sign; A (+/−) indicates compounds causing faint levels of fluorescence or compounds that have some autofluorescence in addition to causing the cells to fluoresce; A (−) sign indicates that the compounds did not cause detectable levels of fluorescence; settings: 50 μM compound, 24 hours, detected by eye
Method: The screen was carried out using HeLa cell lines stably transfected with an EGFP (enhanced green fluorescent protein) construct. This construct contains the EGFP cDNA disrupted by intron 2 of the β-globin gene, containing thalassemic mutations (FIG. 1), and was under the control of the CMV promoter. Two different cell lines were generated with this construct, one with a mutation at position 654 (IVS2-654 EGFP) and another with a mutation at position 705 (IVS2-705U EGFP).
For both constructs, disruption of EGFP with mutated intron 2 results in a lack of production of a functional EGFP protein. When correct splicing is restored to a cell, intron 2 is excised and functional EGFP protein is generated (Sazani (2001) Nucl. Acids Res. 29:3965-3974).
Cells were plated in black well, clear bottom 96-well plates at 13×10^4 cells/ml, 100 μl per well. The rows on the ends of the plate (rows 1 and 12) were control rows and the remaining rows were treated with compounds. In the control rows, positive control EGFP cells were alternated with untreated cells serving as negative controls. […]
Twenty-four hours after treatment, the medium was removed and the cells were washed 2 times in 150 μl 1× PBS. […] Cells were then examined on an Olympus inverted fluorescence microscope at 10× or 20× using a FITC filter. Fluorescence was detected by eye. Attempts to utilize a fluorescence plate reader failed as the plate reader was not sensitive enough to detect the expected low levels of EGFP fluorescence.
The criteria used to designate a compound as a positive were as follows. […] Additionally, the fluorescence had to be mostly uniform throughout all of the cells. This criterion was complicated by the fact that many of the compounds had varying levels of autofluorescence, and therefore were difficult to distinguish from those that caused cellular fluorescence. […]
The IVS2-705U and IVS2-654 EGFP cell lines were treated a second time with the 132 positive compounds and analyzed on a fluorescence microscope. […]

IVS2-705 β-globin cells = experiment: RT-PCR analysis of splicing correction, IVS2-705 β-globin cells; design: key: Compounds causing correction by RT-PCR. are indicated by a (+) sign; settings: 50 μM compound
Source text: β-globin cell lines were obtained by stable transfection of HeLa cells with the human β-globin gene carrying thalassemic mutations at either IVS2-654 or IVS2-705. The cloned genes were under the control of the immediate early cytomegalovirus promoter (Sierakowska, et al., (1996) Proc. Natl. Acad. Sci. USA 93:12840-12844). The IVS2-654 EGFP cell line is well known in the art (Sazani (2001) Nucl. Acids Res. 29:3965-3974). The IVS2-705U EGFP cell line was made in the same manner using a different plasmid. HeLa cells were grown in SMEM with 5% horse serum, 5% fetal calf serum, 1% L-glutamine and 1% gentamicin/kanamycin.
(§1) A RT-PCR-based assay was performed to determine if the fluorescence observed on the EGFP cells was a result of the compounds shifting splicing. […] Therefore, primers located in exons 2 and 3 are used to PCR amplify the products, and the size difference is detected by running the products on an acrylamide gel.
After the IVS2-705U and IVS2-654 EGFP cells were re-treated with positive compounds and examined on the microscope, total RNA was isolated using TRI-REAGENT® (Molecular Research Center, Inc., Cincinnati, Ohio). A total of 200 ng of RNA was analyzed by reverse transcription polymerase chain reaction (RT-PCR) using rTth DNA polymerase (Perkin-Elmer, Boston, Mass.) according to manufacturer's instructions. […]

IVS2-705U EGFP cells [2] = experiment: RT-PCR analysis of splicing correction, IVS2-705U EGFP cells; design: key: Compounds causing correction by RT-PCR. are indicated by a (+) sign; settings: 50 μM compound
Method: as §1
After the IVS2-705U and IVS2-654 EGFP cells were re-treated with positive compounds and examined on the microscope, total RNA was isolated using TRI-REAGENT® (Molecular Research Center, Inc., Cincinnati, Ohio). A total of 200 ng of RNA was analyzed by reverse transcription polymerase chain reaction (RT-PCR) using rTth DNA polymerase (Perkin-Elmer, Boston, Mass.) according to manufacturer's instructions. The reverse transcription step was carried out at 70° C. for 15 minutes. The PCR step included 1 cycle, 95° C., 3 minutes: 18 cycles. 95° C., 1 minute, 65° C., 1 minute. For β-globin mRNA amplification, the reverse primer spanned positions 6-28 of exon 3 and the forward primer spanned positions 21-43 of exon 2 of the human β-globin gene. […]
FIG. 3 provides an example of a polyacrylamide gel with RT-PCR products from EGFP cells treated with several positive compounds. The amount of correction was determined by comparing the ratio of the aberrant band and the correct band.

## CCOc1cccc(CN2CCN(c3ccc(F)cc3)CC2)c1O [AA11]
IVS2-705U EGFP cells [1]
  705U EGFP Fluorescence: −
IVS2-705 β-globin cells
  705 β-globin RT-PCR: +

## COc1ccc(CCN(C)Cc2cc(OC)c(OC)cc2Br)cc1OC [Compound A5]
IVS2-705U EGFP cells [1]
  705U EGFP Fluorescence: +/−

## CC(C)(C)c1ccc(C(=O)NNC(=O)Cc2ccc(-c3ccccc3)cc2)cc1 [Compound E11]
IVS2-705U EGFP cells [1]
  705U EGFP Fluorescence: −
IVS2-705U EGFP cells [2]
  705U EGFP RT-PCR: +
IVS2-705 β-globin cells
  705 β-globin RT-PCR: +

Reference: patent publication US20040137472A1, “Methods and compositions for modification of splicing of pre-mRNA” (priority 2002, published 2004)
